Results published in patent publication US20230365558A1, “TETRAHYDROISOQUINOLINE DERIVATIVE AND USE THEREOF” (MEDSHINE DISCOVERY INC., priority 2020, published 2023).
Read-outs that look alike come from different tables or passages of the source.

Columns and labels:
[1] = biological target: PRMT5 enzyme (Homo sapiens (Human), UniProt O14744); test: PRMT5 enzyme inhibitory activity assay (LANCE Ultra TR-FRET); type: biochemical
Description: Experimental objective: To test the inhibitory effect of compounds on PRMT5 enzyme activity
Experimental materials: PRMT5 enzyme
The plate was incubated at 25° C. for 30 min, then added with substrate, and reacted at 25° C. for 90 min. After 90 min, the detection reagent was added to the 384-well plate using PerkinElmer LANCE Ultra TR-FRET standard method to combine with the enzyme-substrate reaction product. […] Raw data were used to calculate the inhibition rate of the test compounds using the following equation: […]
(§1) The inhibition rates were imported into Excel separately to calculate the inhibition rates of compounds at different concentrations, and then XLfit software was used to plot inhibition curves and calculate relevant parameters, including minimum inhibition rate, maximum inhibition rate and IC50.

[2] = test system: Z-138 non-Hodgkin's lymphoma cells; test: In vitro anti-proliferation assay of Z-138 cells (CellTiter-Glo, 6 days); type: cell-based, human; settings: read-out: IC50 (nM), in vitro anti-proliferative activity on Z-138 tumor cells
Description: The plate was incubated at 37° C., CO2 and 100% relative humidity for 6 days. Samples were processed using Promega CellTiter-Glo Luminescent Cell Viability Assay Kit (Promega-G7571) standard method, and the luminescent signal was detected on a TECAN Spark®10M plate reader. Raw data were used to calculate the inhibition rate of the test compounds using the following equation: […]
as §1

[3] = Pharmacokinetic evaluation in CD-1 mice; settings: for Clearance rate CL / Concentration integral AUC / Half-life T1/2 / Bioavailability F: CD-1 mice; for AUC / clearance / half-life / bioavailability: male, CD-1, mouse, in vivo
Description: Experimental objective: To study the pharmacokinetic parameters of the compounds in CD-1 mice
Animal experimental design: Male CD-1 mice (28.08 to 29.01 g, 6 to 7 weeks old), purchased from Shanghai Family Planning Research Institute, n=2/group, 4 mice in total; blood collection time points (h): 0.083 (intravenous injection only), 0.25 (intragastric administration only), 0.5, 1, 2, 4, 8, 10 and 24; compound dose by tail vein injection: 1 mg/kg; single dose by intragastric administration: 5 mg/kg; intravenous and intragastric administration vehicles: 20% N,N-dimethylacetamide aqueous solution, 20% hydroxypropyl-β-cyclodextrin aqueous solution, 5% DMSO/50% PEG400/45% water for injection or 10% Solutol/30% PEG400/60% water for injection. All animals had free access to water during the experiment, fasted overnight before administration, and resumed food supply 4 hours after administration. The entire animal experiment complied with the Institutional Animal Care and Use Committee (IACUC) animal welfare.
Sample collection and storage: After administration, approximately 0.03 mL of blood was collected from the saphenous vein of the mouse at each time point into a pre-frozen commercial EDTA-K2 tube, and placed on wet ice until centrifugation. Blood samples were centrifuged at 4° C., 3,200 g for 10 min. Plasma was collected separately, transferred to a pre-labeled 96-well plate, fast frozen on dry ice, and stored at −70±10° C. until LC-MS/MS analysis.
Pre-treatment of plasma samples: 3 μL of unknown, standard curve, QC, diluted QC and single and double blank samples were taken and placed in 1.5 mL tubes, and 60 μL of internal standard solution (internal standard: Labetalol 100 ng/mL acetonitrile solution, double blank with the same volume of pure acetonitrile) was added. The samples were vortexed for at least 15 seconds, and centrifuged at 4° C., 12,000 g for 15 min. 50 μL of the supernatant was taken and placed on a clean 96-well plate, and 200 μL of 70% acetonitrile was added. The plate was vortex at 800 rpm for 10 min, and centrifuged at 4° C., 3,220 g for 5 min. 2.0 μL of the supernatant was taken for LC-MS/MS analysis. 10-fold sample dilution procedure: 2 μL of the sample was added to 18 μL of blank matrix; 2-fold sample dilution procedure: 2 μL of the sample was added to 2 μL of blank matrix. Plasma was processed in the same manner as undiluted samples. The linear range was 4.00 to 6000 nM. Plasma concentrations would be analyzed with Triple Quad 6500 Plus, and pharmacokinetic parameters would be calculated with Phoenix WinNonlin 6.3.

[4] = test system: MDA-MB-468 human breast cancer cells; test: Anti-proliferative activity on MDA-MB-468 cells (CellTiter-Glo, 7 days); type: cell-based; settings: Homo sapiens, 168 h, read-out: IC50 (nM), in vitro anti-proliferative activity on MDA-MB-468 tumor cells
Description: CellTiter-Glo (chemiluminescent cell viability detection reagent, purchased from Promega).
MDA-MB-468 cells were planted in a white 384-well plate with 40 μL of cell suspension per well, which contained 1000 MDA-MB-468 cells. The cell plate was cultured in a CO2 incubator overnight. […] 78 μL of culture medium was added to a middle plate, and then 2 μL of gradient diluted compound per well was transferred to the middle plate according to the corresponding position. After being thoroughly mixed, 10 μL per well was transferred to the cell plate. […] The cell plate was cultured in a CO2 incubator for 7 days. Another cell plate was prepared, and the signal value was read on the day of administration as the maximum value (Max value in the equation below) to participate in data analysis. 10 μL of chemiluminescent cell viability detection reagent per well was added to the cell plate, and the plate was incubated at room temperature for 10 min to stabilize the luminescent signal. A multi-label analyzer was used for reading. After the incubation of the cell plate with the compound was completed, 10 μL of chemiluminescent cell viability detection reagent per well was added to the cell plate, and the plate was incubated at room temperature for 10 min to stabilize the luminescent signal. A multi-label analyzer was used for reading.

[5] = injection administration (1 mg/kg)

Chain of PRMT5 enzyme (O14744 whole entry): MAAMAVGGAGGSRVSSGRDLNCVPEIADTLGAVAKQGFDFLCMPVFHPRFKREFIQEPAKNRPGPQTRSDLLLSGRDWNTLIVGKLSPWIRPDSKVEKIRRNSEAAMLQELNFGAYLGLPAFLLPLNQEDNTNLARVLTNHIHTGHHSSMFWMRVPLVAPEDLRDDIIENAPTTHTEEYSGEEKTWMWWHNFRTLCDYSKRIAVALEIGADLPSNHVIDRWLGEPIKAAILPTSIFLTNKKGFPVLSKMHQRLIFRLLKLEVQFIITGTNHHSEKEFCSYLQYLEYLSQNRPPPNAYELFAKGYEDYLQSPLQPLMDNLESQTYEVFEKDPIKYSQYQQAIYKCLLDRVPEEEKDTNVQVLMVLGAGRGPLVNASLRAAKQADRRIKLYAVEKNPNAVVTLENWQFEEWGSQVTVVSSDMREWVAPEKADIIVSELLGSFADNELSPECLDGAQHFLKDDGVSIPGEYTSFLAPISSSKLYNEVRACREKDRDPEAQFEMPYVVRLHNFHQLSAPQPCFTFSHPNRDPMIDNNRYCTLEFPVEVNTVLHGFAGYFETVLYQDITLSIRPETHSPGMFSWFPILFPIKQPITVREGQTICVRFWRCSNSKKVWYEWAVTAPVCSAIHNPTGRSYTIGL
Chain of PRMT5 enzyme (Q9BQA1 whole entry partner): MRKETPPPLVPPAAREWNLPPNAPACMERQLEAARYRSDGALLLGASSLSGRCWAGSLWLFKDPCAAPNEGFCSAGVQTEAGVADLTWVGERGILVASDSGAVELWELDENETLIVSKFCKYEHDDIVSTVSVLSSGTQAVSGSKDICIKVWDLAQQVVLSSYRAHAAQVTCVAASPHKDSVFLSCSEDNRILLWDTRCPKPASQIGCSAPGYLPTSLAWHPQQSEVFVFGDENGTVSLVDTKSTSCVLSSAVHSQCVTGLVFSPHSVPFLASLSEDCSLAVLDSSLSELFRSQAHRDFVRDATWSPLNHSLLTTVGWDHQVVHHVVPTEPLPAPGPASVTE

SMILES | IC50 [1] | IC50 [2] | Clearance rate CL [3, 5] | Concentration integral AUC [3, 5] | Half-life T1/2 [3, 5] | Bioavailability F ([3]; oral administration (5 mg/kg)) | Concentration integral AUC ([3]; oral administration (5 mg/kg)) | IC50 ([2]; Homo sapiens, Z-138, 144 h) | other results
O=C(NC[C@H](O)CN1CCc2ccccc2C1)c1ccc2c(c1)NC(=O)C1(CCCC1)O2 [Compound 2] | 128 nM | 24 nM | 39.7 mL/min/kg | 967 nM·h | 33.6 min | 8.6% | 417 nM·h |  | 
O=C(NC[C@H](O)CN1CCc2ccccc2C1)c1ccc2c(c1)NC(=O)C1(CCCCC1)O2 [Compound 3] | 18 nM | 78 nM | 78.1 mL/min/kg | 474 nM·h | 9.6 min | 7.2% | 171 nM·h |  | 
O=C(NC[C@H](O)CN1CCc2ccccc2C1)c1ccc2c(c1)NC(=O)C1(CCOCC1)O2 [Compound 4] | 22 nM |  | 63.3 mL/min/kg | 583 nM·h | 16.2 min | 21.5% | 626 nM·h |  | 
O=C(NC[C@H](O)CN1CCc2ccccc2C1)c1cnc2c(c1)NC(=O)C1(CCC1)O2 [Compound 6] |  | 6 nM | 42.1 mL/min/kg | 944 nM·h | 14.4 min | 16.4% | 773 nM·h |  | 
O=C(NC[C@H](O)CN1CCc2ccccc2C1)c1ccc2c(c1)NC(=O)C1(CC1)O2 [Compound 7] |  | 73 nM | 17.7 mL/min/kg | 2313 nM·h | 82.8 min | 64.2% | 7419 nM·h |  | 
O=C(NC[C@H](O)CN1CCc2ccccc2C1)c1cnc2c(c1)NC(=O)C1(CC1)O2 [Compound 8] | 15 nM |  |  |  |  |  |  | 10 nM | IC50 [4]: 12 nM; AUC ([3]; iv, 1 mg/kg): 0.875 µM·h; clearance ([3]; iv, 1 mg/kg): 53.3 mL/min/kg; half-life ([3]; iv, 1 mg/kg): 54.6 min; AUC ([3]; po, 5 mg/kg): 1.03 µM·h; bioavailability ([3]; po, 5 mg/kg): 24.5%
CC(C)N1CC2(C1)Oc1ccc(C(=O)NC[C@H](O)CN3CCc4ccccc4C3)cc1NC2=O [Compound 9] | 36 nM |  |  |  |  |  |  | 100 nM | AUC ([3]; 1 mg/kg): 0.336 µM·h; clearance ([3]; 1 mg/kg): 107 mL/min/kg; half-life ([3]; 1 mg/kg): 129 min; AUC ([3]; po, 5 mg/kg): 0.168 µM·h; bioavailability ([3]; po, 5 mg/kg): 10%
O=C(NC[C@H](O)CN1CCc2ccccc2C1)c1ccc2c(c1)NC(=O)C1(CN(CC(F)(F)F)C1)O2 [Compound 10] |  |  |  |  |  |  |  | 23 nM | AUC ([3]; 1 mg/kg): 0.785 µM·h; clearance ([3]; 1 mg/kg): 42.1 mL/min/kg; half-life ([3]; 1 mg/kg): 33 min; AUC ([3]; po, 5 mg/kg): 0.572 µM·h; bioavailability ([3]; po, 5 mg/kg): 14.6%
CC(=O)N1CC2(C1)Oc1ccc(C(=O)NC[C@H](O)CN3CCc4ccccc4C3)cc1NC2=O [Compound 11] |  |  |  |  |  |  |  | 88 nM | 
COCCN1CC2(C1)Oc1ccc(C(=O)NC[C@H](O)CN3CCc4ccccc4C3)cc1NC2=O [Compound 13] |  |  |  |  |  |  |  | 47 nM | 
CS(=O)(=O)N1CC2(C1)Oc1ccc(C(=O)NC[C@H](O)CN3CCc4ccccc4C3)cc1NC2=O [Compound 14] |  |  |  |  |  |  |  | 14 nM | 
O=C(NC[C@H](O)CN1CCc2ccccc2C1)c1cc2c(nn1)OC1(CC1)C(=O)N2 [Compound 16] |  | 90 nM |  |  |  |  |  |  | 
O=C(NC[C@H](O)CN1CCc2ccccc2C1)c1ccc2c(c1)NC(=O)C1(CC(O)C1)O2 (stereo partly shown) [Compound 18] |  |  |  |  |  |  |  | 18 nM | AUC ([3]; 1 mg/kg): 0.545 µM·h; clearance ([3]; 1 mg/kg): 71.3 mL/min/kg; half-life ([3]; 1 mg/kg): 24.6 min; AUC ([3]; po, 5 mg/kg): 0.164 µM·h; bioavailability ([3]; po, 5 mg/kg): 6.02%
CCOC1CC2(C1)Oc1ccc(C(=O)NC[C@H](O)CN3CCc4ccccc4C3)cc1NC2=O (stereo partly shown) [Compound 21] |  |  |  |  |  |  |  | 18 nM | 
